# PMC12948223, “HSP70 Interactome‐Mediated Proteolysis Targeting Chimera (HSP70‐PROTAC) for Ferroptosis‐Driven Cancer Treatment” (Advanced Science, 2025)
# Biological target: T1, GPX4 (Homo sapiens, UniProt P36969)
# T1 sequence (P36969 1-170 isoform P36969-2): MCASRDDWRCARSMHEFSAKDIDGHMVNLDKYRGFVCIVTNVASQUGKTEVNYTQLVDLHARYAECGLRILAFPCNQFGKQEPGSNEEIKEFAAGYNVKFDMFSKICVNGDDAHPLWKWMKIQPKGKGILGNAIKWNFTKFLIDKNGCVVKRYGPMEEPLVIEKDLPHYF
# Assay: GPX4 and 4-HNE in HT1080 xenograft tumor tissue (IHC, western blot)
# Type: in vivo, nude mice
# Set-up: from tissue; host or cells: HT1080 xenograft tumour tissue from BALB/c nude mice
# Excerpt: In addition, the tumor samples from the six treatment groups were randomly collected and probed for the levels of GPX4, and 4‐HNE (4‐hydroxynonenal, a lipid peroxidation marker) by immunohistochemistry (IHC) staining (Figure 7G). […] Collectively, the HSP70‐PROTAC GDAz‐3 has been confirmed as an effective ferroptosis‐inducing agent, which can degrade GPX4 both in vitro and in vivo via UPS and CMA dual processes.
# The experimental procedures of the animal experiments were permitted by the Hangzhou Institute of Medicine (HIM), Chinese Academy of Sciences (AP2024‐07‐0010). Male BALB/c nude mice (6 weeks old) were housed under pathogen‐free conditions, maintained at a constant room temperature, and fed standard rodent chow and water. An HT1080 fibrosarcoma xenograft model in nude mice was established through subcutaneous transplantation. When the tumors emerged, the mice were randomly divided into six groups with six mice in each group: […], including the vehicle group, and each of the two inhibitor‐treated groups (ML162 and apoptozole) at 30 mg kg^−1, and their combinations. […] Body weight and tumor size were measured every other day, and the tumor volume and body weight were recorded every other day after drug treatment. After treatment, the animals were euthanized by cervical dislocation, and the tumor bulks were peeled off and weighed. The organ tissues (tumor, heart, liver, spleen, lung, and kidney) were harvested and fixed with 4% paraformaldehyde for hematoxylin‐eosin (H&E) and immunohistochemistry (IHC) staining. In addition, the expression of GPX4 in tumor samples was analyzed in vehicle‐ and GDAz‐3‐treated groups by western blot assay.
# [1] = 30 and 60 mg/kg, vs vehicle group
smiles,measurement,setting,value
"COc1ccc(-c2nc(-c3cc(C(F)(F)F)cc(C(F)(F)F)c3)n(Cc3ccc(C(=O)NCCOCCOCCOCCn4cc(COc5ccc(N(C(=O)CCl)C(C(=O)NCCc6ccccc6)c6cccs6)cc5Cl)nn4)cc3)c2-c2ccc(OC)cc2)cc1 (stereo not drawn) [GDAz-3, 4-((2-(3,5-bis(trifluoromethyl)phenyl)-4,5-bis(4-methoxyphenyl)-1H-imidazol-1-yl)methyl)-N-(2-(2-(2-(2-(4-((2-chloro-4-(2-chloro-N-(2-oxo-2-(phenethylamino)-1-(thiophen-2-yl)ethyl)acetamido)phenoxy)methyl)-1H-1,2,3-triazol-1-yl)ethoxy)ethoxy)ethoxy)ethyl)benzamide]",4-HNE levels in tumor (IHC),[1],increase in 4‐HNE levels
same,GPX4 levels in tumor (IHC),[1],reduction in GPX4 levels
same,GPX4 protein in HT1080 tumor tissue (western blot),single IP injection 50 mg/kg,"reduce the level of GPX4 protein over the vehicle control at the 12, 24, and 36 h time points"
